{"source": "patent US5424314A", "about": "“20,21-dinoreburnamenines” (Roussel-Uclaf, priority 1990, dated 1995)", "key": {"mouse": {"test_system": "mouse", "assay": "Acute toxicity: lethal dose LD0 after oral administration to a mouse", "assay_type": "in vivo", "experimental": "The lethal doses LD0 of the different compounds tested were evaluated after oral administration to a mouse."}, "[1]": {"test_system": "mice of CD1, Charles River type", "assay": "Hypobaric anoxia: survival time of mice subjected to a lethal hypoxic atmosphere", "assay_type": "in vivo", "settings": "relative to vehicle control animals (70 to 80 seconds); male CD1 mice, depression of 620 mm Hg", "excerpt": "The test consisted of measuring the survival time of mice subjected to a lethal hypoxic atmosphere in which male mice of CD1, Charles River type, weighing 20 to 25 grams, were placed individually in a 2 liter enclosure in which a depression of 620 mm Hg was brought about by means of a vacuum pump, according to the following kinetics: […]\n______________________________________\nThe survival time was the time between the start of the depression (T0) and the last respiratory movement; it was on the order of 70 to 80 seconds on the control animals. The results are given as a percentage of the increase in the survival time relative to the control animals who received the vehicle."}, "[2]": {"test_system": "alpha 2 adrenergic receptors", "assay": "Affinity for alpha 2 adrenergic receptors (H^3 rauwolscine displacement, cortex homogenate)", "assay_type": "binding, male rate (rat) brain cortices", "settings": "H^3 rauwolscine 0.15 nM, 45 minutes at 25° C., pH 7.4; concentrations inhibiting 50% of specific fixation compared with phentolamine", "experimental": "2 Affinity for Alpha 2 Adrenergic Receptors\n10 cortices removed from the brains of male rate weighing on average 150 g were homogenized in 90 ml of 0.32M sucrose. After centrifuging the homogenized mixture at 1,000 g for 10 minutes at 0° C., the supernatant was centrifuged at 30,000 g for 10 minutes at 0° C.+4° C. The deposit was suspended in 240 ml of 50 mM Tris HCl pH 7.7 buffer and centrifuged at 30,000 g for 15 minutes at 0° C.+4° C. The new deposit was suspended in 480 ml of 50 mM NaKPO4 pH 7.4 buffer. Then 2 ml of suspension were incubated for 45 minutes at 25° C. in the presence of H^3 rauwolscine it a concentration of 0.15 nM:\ni) on its own, ii) with increasing concentrations of the product under test or, iii) to determine the non-specific fixation, with non-radioactive phentolamine at a concentration of 10^-5 M.\nThe incubated suspensions were filtered on Whatman GF/C and the filters were washed three times with 5 ml of NaKPO4 pH 7.4 buffer at 0° C. The radioactivity of the filters was measured by liquid scintillation. The affinity of the product tested for the alpha 2 adrenergic receptors was determined relative to phentolamine as reference product.\nCD=concentration of phentolamine inhibiting 50% of the specific fixation of H^3 rauwolscine;\nCX=concentration of the product tested inhibiting 50% of the specific fixation of H^3 rauwolscine. […]"}}, "note": "Where a name gives a salt, the structure may show the parent alone."}
{"smiles": "CC(O)c1ccc2c3c4n(c2c1)C=CC1CCCN(CC3)C41", "note": "(racemic) [Example 5]", "values": [{"measurement": "LD0 (maximum dose which did not cause any mortality in 8 days)", "setting": "mouse", "value": 100}, {"measurement": "% increase of survival time", "setting": "[1]", "value": "+21%"}]}
{"smiles": "NC(=O)c1ccc2c3c4n(c2c1)C=CC1CCCN(CC3)C41", "note": "(racemic) [Example 10, [16α(±)]-20,21-dinoreburnamenine-11-carboxamide]", "values": [{"measurement": "% increase of survival time", "setting": "[1]", "value": "+22%"}]}
{"smiles": "CC(=O)c1ccc2c3c4n(c2c1)C=CC1CCCN(CC3)C41", "note": "(racemic) [Example 4, [16α(±)]-11-acetyl-20,21-dinoreburnamenine acid maleate]", "values": [{"measurement": "LD0 (maximum dose which did not cause any mortality in 8 days)", "setting": "mouse", "value": 100}, {"measurement": "% increase of survival time", "setting": "[1]", "value": "+22%"}]}
{"smiles": "C=Cc1ccc2c3c4n(c2c1)C=CC1CCCN(CC3)C41", "note": "(racemic) [Example 1, [16 α(±)]-11-ethenyl-20,21-dinoreburnamenine maleate]", "values": [{"measurement": "LD0 (maximum dose which did not cause any mortality in 8 days)", "setting": "mouse", "value": "≥ 400"}, {"measurement": "RBA (relative affinity, relative to phentolamine as reference product)", "setting": "[2]", "value": 31}]}
